Reference: patent US20080242594A1, “Methods for Promoting Stem Cell Proliferation and Survival” (priority 2005, published 2008)

Key:
[1] = system: STAT3; assay: STAT3 phosphorylation (Ser727, Tyr705) immunoblot in CNS stem cells; type: cell-based, mouse
Text: Ligands that activate JAK/STAT signaling promote astrocytic differentiation of CNS stem cells (Johe et al., Genes Dev 10:3129-40, 1996; Raj an et al., J Neurosci 18:3620-9, 1998; Bonni et al., Science 278:477-83, 1997; Song et al., Nat Neurosci 7:229-35, 2004; He et al., Nat Neurosci 8:616-625, 2005). When applying CNTF to CNS stem cells it was noted that low concentrations of CNTF stimulated survival but not expression of astrocyte specific genes. This is consistent with previous observations of Akt phosphorylation downstream of gp130 activation (Taga et al., Annu Rev Immunol 15:797-819, 1997). […] At high concentrations (20 ng/ml) the phosphorylation of Tyr705 can be blocked by an inhibitor of JAK while allowing a CNTF-induced increase in Ser727 phosphorylation (FIG. 2B) (Thompson et al., Bioorg Med Chem Lett 12:1219-23, 2002).
CNTF was used as a positive control; CNTF, induced the phosphorylation on both sites. With both CNTF and Notch activation, phosphorylation peaked at around 30 min. STAT3 phosphorylation on Ser727 following Notch activation was sensitive to the γ-secretase inhibitor DAPT (FIG. 2e). […] In contrast to CNTF, no Tyr705 phosphorylation was detected at any of the doses of Notch receptor ligands.
It was determined that insulin also maintains phosphorylation of serine 727 in STAT3 in foetal neural stem cell cultures.

[2] = system: adult rat SVZ stem cells; assay: Adult SVZ stem cell plating efficiency and colony size; type: cell-based
Protocol: (§1) Cell culture: E13.5 cortical embryonic mouse and adult rat subventricular zone CNS stem cells were grown as previously described (Johe et al., Genes Dev 10:3129-40, 1996; Rajan et al., J Neurosci 18:3620-9, 1998). Cells were expanded in serum-free DMEM/F12 medium with N2 supplement with FGF2 (20 ng/ml) for 5 days and were re-plated at 1000-10,000 cells per cm^2. FGF2 was included throughout our experiments, unless otherwise stated.
Very little protein or mRNA were detected outside the SVZ (FIG. 4g). Adult CNS stem cells can be cultured as a monolayer in vitro (FIG. 4h) and they show similar responses to extracellular signals that regulate stem cell differentiation upon withdrawal of the mitogen that sustains the undifferentiated state (Johe et al., Genes Dev 10:3129-40, 1996). To ask if Notch activation promotes survival in rat adult SVZ cultures, isolated cells were grown in the presence of FGF2 with and without Delta-4 for one week. […] When FGF2 was withdrawn for a week, cells at clonal density generated all three CNS lineages (FIG. 8C, Table 4).

[3] = system: mES (D3) cells; assay: mES cell plating efficiency, Oct4 and STAT3 phosphorylation in the presence of LIF; type: cell-based, mouse; settings: for Oct4 expression: five day treatments in the presence of LIF; for cell survival in a plating efficiency assay: in the presence of LIF
Text: FIGS. 10a-10c are a set of images showing JAK inhibition reduces the phosphorylation of STAT3 on Ser727 in mES cell cultures. […] Very low levels of phosphorylated p38 were detectable under all conditions. […] Self-renewal of mES cells correlated with Ser727 phosphorylation.
mES (D3) cells were obtained from ATCC and were maintained in feeder-free cultures on gelatin-coated plates supplemented with 1400 units/ml LIF.
There is great interest in conditions that support the growth of mouse and human ES cells. In contrast to CNS SC (FIG. 2, FIG. 3) and hES SC (se below), the growth of undifferentiated mouse ES cells depends on the stimulation of the JAK/STAT pathway and STAT3 phosphorylation on Tyr705 has been specifically shown to be essential for self-renewal of mouse ES cells (Niwa et al., Genes Dev 12:2048-60, 1998; Matsuda et al., Embo J 18:4261-9, 1999). Ligands that stimulate the JAK/STAT pathway cause human ES cells to differentiate (Daheron et al., Stem Cells 22:770-8, 2004; Humphrey et al., Stem Cells 22:522-30, 2004). It was determined if the Notch/sSTAT survival pathway is present in mouse or human ES cells.

[4] = system: E13.5 cortical embryonic mouse CNS stem cells; assay: CNS stem cell plating efficiency / colony formation / survival; type: cell-based
Protocol: as §1
To explore these paradoxical observations, CNS stem cell cultures from mid-gestation (embryonic day 13.5) mouse dorsal telencephalon were treated with soluble Notch ligands. […] Following initial passaging, the cells were plated at a density of 1000 cells/cm^2, cultured for 5 days in the presence of FGF2, and colony numbers, sizes, and BrdU incorporation (after a 4 hour BrdU pulse) were enumerated. Notch activation by Jagged-1 or Delta-4 (200 ng/ml) increased the number of colonies generated in vitro by over 3-fold (FIG. 1a). […] The effects of Notch activation were most dramatic when treatments were initiated at the start of the culture.
Insulin in the medium is also thought to promote cell survival. […] Seeding cells in the absence of insulin caused the plating efficiency measured at five days to drop to 29.9%±37.9 (FIG. 1e). Delta-4 was able to compensate for the lack of insulin in the medium, and restored plating efficiency (125%±19.4). Because Notch activation improved survival, activation of Akt, a ser/threonine kinase known to be involved in cell survival, was assayed. Notch activation rapidly (5 minutes) promoted the phosphorylation of Akt on Ser473 and […] in both the presence and absence of insulin (FIG. 1f).

[5] = system: Hes3; assay: Hes3 expression (RT-PCR, immunohistochemistry) in CNS stem cells; type: cell-based, mouse; settings: for Hes3 mRNA levels: CNTF 20 ng/ml
Protocol: RT-PCR: For reverse-transcriptase PCR analysis, RNA was extracted from cell cultures or brain homogenates with Trizol (Invitrogen, 15596-026), and PCR reactions were performed with the ProSTAR First-Strand RT-PCR Kit (Stratagene, 200420). Primers were used for the following genes: Hes1, Hes2, Hes3, Hes5, Hes6, Hey2; Hes7
Notch signaling regulates transcription of the Hes/Hey gene family, a group of genes implicated in the control of differentiation (Iso et al., J Cell Physiol 194:237-55, 2003). RT-PCR was used to assess mRNA regulation of these genes one hour after Notch activation in CNS stem cells. […] The ability of high concentrations of CNTF to inhibit Hes3 induction following Notch activation was dependent on JAK activity (FIG. 4e). In contrast, in the absence of added Notch ligand, Hes3 mRNA levels were elevated by high CNTF and the JAK inhibitor (FIG. 4e).
Conversely, treatment with ciliary neurotrophic factor (CNTF), a cytokine that opposes the signal transduction pathway downstream of Notch activation opposed the ability of D114 to induce Hes3 transcription. Immunohistochemical experiments were performed that documented D114, CNTF regulate Hes3 expression. Thus, at the protein expression level, D114 maintains and CNTF inhibits Hes3 expression.

[6] = in the presence of FGF2 for one week

Compound	effect on CNTF-induced STAT3 phosphorylation ([1]; CNTF 20 ng/ml)	enhancement of plating efficiency [2]	STAT3 phosphorylation on Ser727 and Tyr705 ([3]; 90 min)	Oct4 expression [3]	cell survival in a plating efficiency assay [3]	CNS stem cell survival / plating efficiency ([4]; 5 days, versus FGF2 control, CNTF low 0.01, 0.1 ng/ml or high 20 ng/ml with JAK inhibitor)	Hes3 mRNA levels [5]	concentration at which peak STAT3 phosphorylation was achieved ([1]; dose response, Ser727) [ng/mL]	colony size [2, 6]	plating efficiency [2, 6]	plating efficiency ([4]; absence of insulin in the medium, five days)	Hes3 expression at the protein expression level ([5]; immunohistochemical)
CC(C)(C)c1nc2c3ccc(F)cc3c3c(=O)[nH]ccc3c2[nH]1 [JAK Inhibitor, 2-(1,1-Dimethylethyl)-9-fluoro-3,6-dihydro-7H-benz[h]-imidaz[4,5-f]isoquinolin-7-one]	selectively blocked Tyr705 but not Ser727 phosphorylation	approx. 40%	significant down-regulation	down-regulated Oct4	reduced it	increased survival	no effect on Hes3 mRNA					
Delta-4: soluble Notch ligand Delta-4 (1389-D4) from R&D				did not affect Oct4 expression	did not significantly alter cell survival		increases its transcription	~1	278.5%±52.5	1050%±273.8	125%±19.4	maintains
